Experimental data published in patent US20090010923A1, “TREATMENT OF CANCER WITH ANTI-MUSCARINIC RECEPTOR AGENTS” (University of Maryland, Baltimore, priority 2007, published 2009).
“Also recorded” adds a separate entry of the source. Each block holds one compound with its values, some of them ahead of it.

Columns and labels:
SNU-C4 cells = experiment: Cell proliferation, sulforhodamine B (SRB) colorimetric assay, SNU-C4 cells; type: cell-based, human; details: 5 days, 37° C., alone; cells express EGFR but not M3R
Procedure: (§1) FIG. 1 depicts bile acid-induced colon cancer cell proliferation which requires M3R expression and activation in H508 and SNU-C4 cells. […] Cell proliferation was determined using the sulforhodamine B (SRB) colorimetric assay. Mean±SEM of 3 exp.
(§2) Cells that are known to express both EGFR and M3R were treated with several M3R antagonists and bile acid conjugates to determine if M3R ligand binding affected EGFR activation. […] Cell proliferation was determined using the sulforhodamine B (SRB) colorimetric assay. […] Mean±SEM of 3 exp.

H508 cells [1] = experiment: Cell proliferation, sulforhodamine B (SRB) colorimetric assay, H508 cells; type: cell-based, human; details: 5 days, 37° C.; for proliferation of H508 cells: alone, cells co-express M3R and EGFR
Procedure: as §1, §2
MAPK activation was detected with 10 μM and maximal with 300 μM DCT. […] DCT-induced MAPK activation is rapid and reversible. MAPK activation is detected within 1 min, maximal by 10-20 min and returns to basal by 70 min. Collectively these findings emphasize the importance of co-expression of M3R and EGFR for both ACh- and bile acid-induced colon cancer cell proliferation, and define relevant DCT concentrations.

[2] = cited from earlier work
H508 cells [3] = experiment: p44/42 MAPK phosphorylation/activation in H508 colon cancer cells; type: cell-based, human
Description: (§3) In H508 colon cancer cells, acetylcholine (ACh) activates p44/42 MAPK and p90RSK, which is a nuclear response protein that regulates gene expression and the cell cycle.

[4] = system: CHO cells expressing rat M3R (CHO-rM3R); experiment: p44/42 MAPK phosphorylation in CHO cells expressing rat M3R; type: cell-based
Description: as §3

M1R and M3R = system: M1R and M3R
Description: Muscarinic receptor subtypes were expressed in murine gastric chief cells using M1R^−/−, M3R^−/− and M1/3R^−/− mice. […] The mice were generated using gene targeting.

colon cancer cells [5] = experiment: Post-EGFR PI3K/Akt and GSK-3 signaling in colon cancer cells; type: cell-based
Description: The rationale for including both murine colon cancer models in this study is to observe important differences between these cancer models. Although the Apc^Min/+ genotype mimics more closely the human condition (e.g. FAP), the AOM-treated mouse phenotype is more similar to human colon cancer. […] Additionally, Apc^Min/+ mice provide an opportunity to study the relationship between M3R and activation and expression of genes in the Wnt/β-catenin signaling pathway. Binding of Wnt to its cell surface receptor (Frizzled) leads to activation of β-catenin (nuclear translocation and binding to Tcf/LEF, resulting in transcription of important target genes, including cyclin D1). Apc, is a scaffold protein that promotes GSK-3α/β-mediated phosphorylation of β-catenin; phosphorylated β-catenin is targeted for proteosomal degradation, thereby preventing nuclear translocation and pro-proliferative gene transcription. Mutated Apc in Apc^Min/+ mice results in reduced β-catenin phosphorylation, thereby promoting nuclear translocation and pro-proliferative actions. […] These findings provide strong evidence that bile acid-activated M3R signaling can promote pro-proliferative actions of β-catenin. The Apc^Min/+ mouse provides an excellent model to elucidate the role of M3R activation and expression in Wnt/β-catenin signaling.
(§4) apoptosis, or both. Deoxycholic acid induces apoptosis.

colon cancer cells [6] = experiment: Caspase-3 activation (apoptosis) in colon cancer cells; type: cell-based
Description: as §4

[7] = system: muscarinic receptors on gastric chief cells; experiment: Pepsinogen secretion from gastric chief cells; type: cell-based
WT and M3R−/− mice = experiment: AOM murine colon cancer model (WT and M3R-/- mice); type: in vivo, mouse; details: for colon tumor number: 20 weeks
Procedure: WT and M3R^−/− male mice (129S6/SvEvTac×CFl; 50%/50%) were treated for 6 wks in which 48 animals received weekly intraperitoneal (ip) PBS (control) or AOM (10 mg/kg). The AOM mouse model is a well-established, commonly used model that mimics human colon carcinogenesis. AOM, an intermediate in the metabolism of 1,2-dimethylhydrazine to the alkylating ion methyldiazonium, is a well-known colorectal-specific pro carcinogen. AOM-induced rodent tumors mimic human colon cancer in that most tumors arise in the colon, form grossly visible exophytic polypoid or plaque-like growths, and have a microscopic appearance similar to that of human lesions. Molecular changes in AOM-induced tumors, including β-catenin and p53 mutations, which also mimic those in human colon cancer. […] Short-term study end-points are identified (e.g. aberrant crypt foci (ACF), β-catenin-accumulating crypts (BCAC) and BrdUrd staining) and potential toxicity was evaluated, a smaller group of mice is euthanized early, upon completion of AOM treatment. During the study, WT and M3R^−/− mice were given weekly (for 6 weeks) intraperitoneal (ip) PBS (control; n=10 WT-PBS mice) or AOM (10 mg/kg; n=22 WT-AOM and 16 WT and M3R^−/−-AOM mice). […] Animals were housed under identical conditions and fed standard mouse chow. Mice were weighed weekly, observed for evidence of tumor formation (e.g., anal bleeding) and euthanized at 20 weeks. Colon length was measured, segments opened longitudinally, and tumors identified and photographed using a Nikon SMZ1500 dissecting microscope. Tumor number and diameter were measured using Image-Pro software and tumor volume was calculated: vol=½ width×length^2. Two hours before euthanasia, mice received intraperitoneal injection of BrdU (Sigma-Aldrich) (50 mg/kg) to label S-phase cells, a marker of proliferation. BrdU labeling was determined after immunostaining with anti-BrdU antibody (BD Bioscience) by counting BrdU-positive nuclei in 1000 cells (data expressed as percent of total cells that were BrdU-positive). As a marker of apoptosis, we used immunostaining with anti-activated caspase-3 antibody (Cell Signaling Technology). Only complete crypts were evaluated and investigators were masked to treatment group. For analysis of both BrdU and activated caspase-3 staining, only tissue from the distal half of the colon was examined.

[8] = system: muscarinic receptors on gastric chief cells; experiment: IP formation, gastric chief cells; type: cell-based
[9] = system: muscarinic receptors on gastric chief cells; experiment: Competition for binding with a muscarinic radioligand, gastric chief cells

Compound: C[C@H](CCC(=O)NCC(=O)O)[C@H]1CC[C@H]2[C@@H]3CC[C@@H]4C[C@H](O)CC[C@]4(C)[C@H]3C[C@H](O)[C@]12C [DCG]
proliferation of SNU-C4 cells (SNU-C4 cells): do not significantly alter proliferation | proliferation of H508 cells (H508 cells [1]): stimulate proliferation

Compound: CCCC[N+]1(C)[C@@H]2C[C@@H](OC(=O)[C@H](CO)c3ccccc3)C[C@H]1[C@@H]1O[C@@H]12 (stereo partly drawn) [scopolamine butylbromide]
activity of metabolites ([2]; in vivo): inactive | half-life of the terminal elimination phase ([2]; in vivo): about 5 hr | protein binding ([2]; in vivo): low | blood-brain barrier crossing ([2]; quaternary ammonium derivative): does not cross the blood-brain barrier

Compound: CC(=O)OCC[N+](C)(C)C [ACh, acetylcholine]
ACh-induced p44/42 MAPK phosphorylation (H508 cells [3]; H508 cells): 14 fold | ACh-induced p44/42 MAPK phosphorylation [4]: 27 fold

Compound: cholecystokinin [cholecystokinin (CCK)]
agonist-induced pepsinogen secretion (M1R and M3R): not altered

Compound: C[C@H](CCC(=O)NCCS(=O)(=O)O)[C@H]1CC[C@H]2[C@@H]3CC[C@@H]4C[C@H](O)CC[C@]4(C)[C@H]3C[C@H](O)[C@]12C [DCT, Deoxycholyltaurine]
proliferation of SNU-C4 cells (SNU-C4 cells): do not significantly alter proliferation | proliferation of H508 cells (H508 cells [1]): stimulate proliferation; also recorded: stimulated after 5 days | DCT concentration at which MAPK activation was detected (H508 cells [3]): 10 µM | DCT concentration at which MAPK activation was maximal (H508 cells [3]): 300 µM | time at which MAPK activation is detected (H508 cells [3]): ≤ 1 min | time at which MAPK activation returns to basal (H508 cells [3]): ≤ 70 min | time of maximal MAPK activation (H508 cells [3]): 10 to 20 min | phosphorylation of GSK-3α/β (colon cancer cells [5]; colon cancer cells): stimulates an inactivating phosphorylation | post-EGFR PI3K/Akt signaling (colon cancer cells [5]; preliminary studies): activates | DCT-induced apoptosis (caspase-3 activation) (colon cancer cells [6]): no evidence of DCT-induced apoptosis

Compound: CN1[C@@H]2CC[C@H]1C[C@@H](OC(=O)C(CO)c1ccccc1)C2 (stereo partly drawn) [atropine]
inhibition of the actions of LCT [7]: inhibited the actions of LCT | inhibition of actions of DCT on H508 proliferation (H508 cells [1]; with DCT): inhibited

adenocarcinomas/mouse (WT and M3R−/− mice; AOM-treated M3R-/- mice): 0.6±0.1 | mice with adenomas (WT and M3R−/− mice; AOM-treated M3R-/- mice): 6% | tumor volume (WT and M3R−/− mice; AOM-treated M3R-/- mice): 8.1±1.5 mm^3 | colon tumor number (WT and M3R−/− mice; AOM-treated M3R-/- mice): 3.2±0.3 tumors/colon | adenocarcinomas/mouse (WT and M3R−/− mice; AOM-treated WT mice): 1.7±0.4 | mice with adenomas (WT and M3R−/− mice; AOM-treated WT mice): 36% | tumor volume (WT and M3R−/− mice; AOM-treated WT mice): 20.3±4.1 mm^3 | colon tumor number (WT and M3R−/− mice; AOM-treated WT mice): 5.3±0.5 tumors/colon | increase in tumors/animal (WT and M3R−/− mice; WT mice treated with AOM): 5 fold
Compound: CN=[N+](C)[O-] [AOM, azoxymethane]
BrdU-positive cells in colon epithelium (WT and M3R−/− mice; AOM-treated M3R-/- mice): 7.2±0.9% | BrdU-positive cells in colon epithelium (WT and M3R−/− mice; AOM-treated WT mice): 16.6±4.0% | increase in BrdU-positive epithelial cells (WT and M3R−/− mice; AOM-treated WT mice vs PBS-treated WT, 10 mg/kg ip weekly x 6 wks, 20 wks): 5 fold | number of apoptotic cells (activated caspase-3) (WT and M3R−/− mice; PBS-treated WT, AOM-treated WT and M3R-/- mice): no significant difference

Compound: C[C@H](CCC(=O)NCCS(=O)(=O)O)[C@H]1CC[C@H]2[C@@H]3CC[C@@H]4C[C@H](O)CC[C@]4(C)[C@H]3CC[C@]12C [LCT, lithocholyltaurine]
proliferation of SNU-C4 cells (SNU-C4 cells): do not significantly alter proliferation | pepsinogen secretion [7]: stimulating pepsinogen secretion | proliferation of H508 cells (H508 cells [1]): stimulate proliferation | IP formation [8]: increased IP formation | competition for binding with a muscarinic radioligand [9]: competed for binding

Compound: NCCS(=O)(=O)O [taurine]
pepsinogen secretion [7]: did not alter | IP formation [8]: did not alter | competition for binding with a muscarinic radioligand [9]: did not alter

Compound: cholyltaurine
pepsinogen secretion [7]: did not alter | IP formation [8]: did not alter | competition for binding with a muscarinic radioligand [9]: did not alter
